What was measured:
Influenza A virus [1] = assay: Anti-viral activity against Influenza A virus H7N1 pseudotype infected in human A549 cells assessed as inhibition of viral entry incubated for 48 hrs by Neolite Reporter Gene Assay; assay type: functional, organism-based; details: H7N1, A549, 48 h
[2] = Cytotoxicity against human A549 cells incubated for 48 hrs by CellTiter-Glo Luminescent Cell Viability Assay; assay type: toxicity, cell-based
Influenza A virus [3] = assay: Anti-viral activity against wild-type Influenza A virus H7N1 pseudotype infected in human A549 cells assessed as inhibition of viral entry incubated for 48 hrs by Neolite Reporter Gene Assay; assay type: functional, organism-based; details: H7N1, A549, 48 h
[4] = Metabolic stability in human liver microsomes assessed as compound remaining at 2 to 10 uM measured after 60 mins in presence of NADPH by LC-MS/MS analysis; assay type: ADME, Microsome; details: dose 2-10 µM, read-out: Stability
[5] = Metabolic stability in BALB/c mouse liver microsomes assessed as compound remaining at 2 to 10 uM measured after 60 mins in presence of NADPH by LC-MS/MS analysis; assay type: ADME, Microsome; details: dose 2-10 µM, read-out: Stability
[6] = Metabolic stability in human liver microsomes assessed as compound remaining at 2 to 10 uM measured after 60 mins in absence of NADPH by LC-MS/MS analysis; assay type: ADME, Microsome; details: dose 2-10 µM, read-out: Stability
[7] = Metabolic stability in BALB/c mouse liver microsomes assessed as compound remaining at 2 to 10 uM measured after 60 mins in absence of NADPH by LC-MS/MS analysis; assay type: ADME, Microsome; details: dose 2-10 µM, read-out: Stability
[8] = Metabolic stability in human plasma at 2 uM measured after 60 mins by LC-MS/MS analysis; assay type: ADME, cell-free; details: 1 h
[9] = Metabolic stability in mouse plasma at 2 uM measured after 60 mins by LC-MS/MS analysis; assay type: ADME, cell-free; details: 1 h
[10] = Half life in CD1 mouse at 25 mg/kg, ip; assay type: ADME, organism-based; details: in vivo
[11] = Tmax in CD1 mouse at 25 mg/kg, ip; assay type: ADME, organism-based; details: in vivo
[12] = Cmax in CD1 mouse at 25 mg/kg, ip; assay type: ADME, organism-based; details: in vivo
[13] = AUC (infinity) in CD1 mouse at 25 mg/kg, ip; assay type: ADME, organism-based; details: in vivo
[14] = MRT (infinity) in CD1 mouse at 25 mg/kg, ip; assay type: ADME, organism-based; details: in vivo
[15] = Apparent volume of distribution in CD1 mouse at 25 mg/kg, ip; assay type: ADME, organism-based; details: in vivo
[16] = Clearance in CD1 mouse at 25 mg/kg, ip; assay type: ADME, organism-based; details: in vivo
[17] = Metabolic stability in human liver microsomes assessed as compound remaining at 2 to 10 uM measured after 60 mins in presence of furafylline/NADPH by LC-MS/MS analysis; assay type: ADME, Microsome; details: with furafylline, dose 2-10 µM, read-out: Stability
[18] = Metabolic stability in human liver microsomes assessed as compound remaining at 2 to 10 uM measured after 60 mins in presence of sulfaphenazole/NADPH by LC-MS/MS analysis; assay type: ADME, Microsome; details: with sulfaphenazole, dose 2-10 µM, read-out: Stability
[19] = Metabolic stability in human liver microsomes assessed as compound remaining at 2 to 10 uM measured after 60 mins in presence of quinidine/NADPH by LC-MS/MS analysis; assay type: ADME, Microsome; details: with quinidine, dose 2-10 µM, read-out: Stability
[20] = Metabolic stability in human liver microsomes assessed as compound remaining at 2 to 10 uM measured after 60 mins in presence of ketoconazole/NADPH by LC-MS/MS analysis; assay type: ADME, Microsome; details: with ketoconazole, dose 2-10 µM, read-out: Stability
[21] = Metabolic stability in BALB/c mouse liver microsomes assessed as compound remaining at 2 to 10 uM measured after 60 mins in presence of furafylline/NADPH by LC-MS/MS analysis; assay type: ADME, Microsome; details: with furafylline, dose 2-10 µM, read-out: Stability
[22] = Metabolic stability in BALB/c mouse liver microsomes assessed as compound remaining at 2 to 10 uM measured after 60 mins in presence of sulfaphenazole/NADPH by LC-MS/MS analysis; assay type: ADME, Microsome; details: with sulfaphenazole, dose 2-10 µM, read-out: Stability
[23] = Metabolic stability in BALB/c mouse liver microsomes assessed as compound remaining at 2 to 10 uM measured after 60 mins in presence of quinidine/NADPH by LC-MS/MS analysis; assay type: ADME, Microsome; details: with quinidine, dose 2-10 µM, read-out: Stability
[24] = Metabolic stability in BALB/c mouse liver microsomes assessed as compound remaining at 2 to 10 uM measured after 60 mins in presence of ketoconazole/NADPH by LC-MS/MS analysis; assay type: ADME, Microsome; details: with ketoconazole, dose 2-10 µM, read-out: Stability

Structure (SMILES)	EC50 (Influenza A virus [1])	CC50 at 48 h [2]	remaining at 1 h, up to 10 µM [4]	remaining at 1 h, up to 10 µM [5]	remaining at 1 h, up to 10 µM [6]	remaining at 1 h, up to 10 µM [7]	Stability [8]	Stability [9]	half-life [10]	Tmax [11]	Cmax [12]	AUC(0-inf) [13]	MRT inf [14]	Vz [15]	CL/F [16]	remaining at 1 h, up to 10 µM [17]	remaining at 1 h, up to 10 µM [18]	remaining at 1 h, up to 10 µM [19]	remaining at 1 h, up to 10 µM [20]	remaining at 1 h, up to 10 µM [21]	further results
Oc1ccc(-c2nc3ncccn3c2NC2CCCCC2)c(F)c1	0.09 µM	> 100 µM	68.9%	72.7%	115%	101%	Stable	Stable	3.61 h	0.083 h	14500 ng/mL	3660 ng·h/mL	0.842 h	35.639 L/kg	114 mL/min/kg	–	–	–	–	–	EC50 (Influenza A virus [3]): 0.11 µM
Fc1ccc(-c2nc3ncccn3c2NC2CCCCC2)cc1F	0.07 µM	> 100 µM	2.2%	2.7%	113%	114%	Stable	Stable	–	–	–	–	–	–	–	19.7%	7.2%	10.9%	48.8%	7.3%	remaining at 1 h, up to 10 µM [22]: 5.5%; remaining at 1 h, up to 10 µM [23]: 5.3%; remaining at 1 h, up to 10 µM [24]: 51.7%
Fc1cc(OCc2ccc(C(F)(F)F)cc2)ccc1-c1nc2ncccn2c1NC1CCCCC1	0.47 µM	> 100 µM	36%	60.5%	105%	104%	Stable	Stable	3.82 h	2.67 h	2930 ng/mL	33900 ng·h/mL	6.25 h	4.226 L/kg	12.8 mL/min/kg	–	–	–	–	–	–
COc1ccc(-c2nc3ncccn3c2NC2CCCCC2)cc1	0.08 µM	> 1250 µM	21.1%	2.3%	113%	113%	Stable	Stable	–	–	–	–	–	–	–	71%	32%	36.5%	65.1%	12.2%	remaining at 1 h, up to 10 µM [22]: 4.5%; remaining at 1 h, up to 10 µM [23]: 4.2%; remaining at 1 h, up to 10 µM [24]: 39.4%
